According to PubChem BioAssay (NCI):
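Briefly, cells in 96-well plates were exposed to five compound concentrations for 48 h, and endpoints were estimated by linear interpolation. At the GI50, growth is halved. Definition used: TGI = concentration required for complete inhibition of growth.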

Legend:
Experiment in all cases: NCI anticancer screen, dose series, 48 h
[1] = system: M14 melanoma
[2] = system: U251 CNS
[3] = system: SK-MEL-28 melanoma
[4] = system: HOP-62 NSCLC
[5] = system: MDA-MB-231 breast
[6] = system: DU-145 prostate
[7] = system: NCI-H226 lung
[8] = system: A498 renal
[9] = system: MCF7 breast
[10] = system: MALME-3M melanoma
[11] = system: SR leukemia
[12] = system: SF-539 CNS
[13] = system: COLO 205 colon
[14] = system: UACC-62 melanoma
[15] = system: OVCAR-8 ovarian
[16] = system: K-562 leukemia
[17] = system: IGROV1 ovarian
[18] = system: HT29 colon
[19] = system: BT-549 breast
[20] = system: NCI-H522 lung
[21] = system: A549 NSCLC
[22] = system: CAKI-1 renal
[23] = system: OVCAR-3 ovarian
[24] = system: PC-3 prostate
[25] = system: MOLT-4 leukemia
[26] = system: SF-268 CNS
[27] = system: SK-OV-3 ovarian
[28] = system: NCI-H460 lung
[29] = system: HS 578T breast
[30] = system: OVCAR-4 ovarian
[31] = system: HCT-116 colon
[32] = system: HCT-15 colon
[33] = system: RPMI-8226 leukemia
[34] = system: SNB-75 CNS
[35] = system: NCI/ADR-RES ovarian
[36] = system: OVCAR-5 ovarian
[37] = system: SW-620 colon
[38] = system: LOX IMVI melanoma
[39] = system: SN12C renal
[40] = system: ACHN renal
[41] = system: UACC-257 melanoma
[42] = system: MDA-MB-435
[43] = system: TK-10 renal
[44] = system: CCRF-CEM leukemia
[45] = system: HCC-2998 colon
[46] = system: RXF 393 renal
[47] = system: SK-MEL-2 melanoma
[48] = system: UO-31 renal
[49] = system: HL-60(TB) leukemia
[50] = system: SNB-19 CNS
[51] = system: T-47D breast
[52] = system: SF-295 CNS
[53] = system: SK-MEL-5 melanoma
[54] = system: 786-0 renal
[55] = system: KM12 colon
[56] = system: NCI-H23 lung
[57] = system: HOP-92 NSCLC

Cn1cc(C2=C(c3cn(CCCN=C(N)N)c4ccccc34)C(=O)NC2=O)c2ccccc21
GI50 [1]: > 25 µM | TGI [1]: > 25 µM | GI50 [2]: > 25 µM | TGI [2]: > 25 µM | GI50 [3]: > 25 µM | TGI [3]: > 25 µM | GI50 [4]: > 25 µM | TGI [4]: > 25 µM | GI50 [5]: > 25 µM | TGI [5]: > 25 µM | GI50 [6]: > 25 µM | TGI [6]: > 25 µM | GI50 [7]: > 25 µM | TGI [7]: > 25 µM | GI50 [8]: > 25 µM | TGI [8]: > 25 µM | GI50 [9]: > 25 µM | TGI [9]: > 25 µM | GI50 [10]: > 25 µM | TGI [10]: > 25 µM | GI50 [11]: 7.22 µM | TGI [11]: > 25 µM | GI50 [12]: > 25 µM | TGI [12]: > 25 µM | GI50 [13]: 9.76 µM | TGI [13]: > 25 µM | GI50 [14]: > 25 µM | TGI [14]: > 25 µM | GI50 [15]: > 25 µM | TGI [15]: > 25 µM | GI50 [16]: > 25 µM | TGI [16]: > 25 µM | GI50 [17]: 14.8 µM | TGI [17]: > 25 µM | GI50 [18]: > 25 µM | TGI [18]: > 25 µM | GI50 [19]: > 25 µM | TGI [19]: > 25 µM | GI50 [20]: > 22.2 µM | TGI [20]: > 25 µM | GI50 [21]: > 25 µM | TGI [21]: > 25 µM | GI50 [22]: > 25 µM | TGI [22]: > 25 µM | GI50 [23]: > 25 µM | TGI [23]: > 25 µM | GI50 [24]: > 23.1 µM | TGI [24]: > 25 µM | GI50 [25]: > 25 µM | TGI [25]: > 25 µM | GI50 [26]: > 25 µM | TGI [26]: > 25 µM | GI50 [27]: > 25 µM | TGI [27]: > 25 µM | GI50 [28]: > 25 µM | TGI [28]: > 25 µM | GI50 [29]: > 25 µM | TGI [29]: > 25 µM | GI50 [30]: > 25 µM | TGI [30]: > 25 µM | GI50 [31]: > 25 µM | TGI [31]: > 25 µM | GI50 [32]: > 25 µM | TGI [32]: > 25 µM | GI50 [33]: > 25 µM | TGI [33]: > 25 µM | GI50 [34]: 0.361 µM | TGI [34]: > 25 µM | GI50 [35]: > 25 µM | TGI [35]: > 25 µM | GI50 [36]: > 25 µM | TGI [36]: > 25 µM | GI50 [37]: > 25 µM | TGI [37]: > 25 µM | GI50 [38]: > 25 µM | TGI [38]: > 25 µM | GI50 [39]: > 19.8 µM | TGI [39]: > 25 µM | GI50 [40]: > 25 µM | TGI [40]: > 25 µM | GI50 [41]: > 25 µM | TGI [41]: > 25 µM | GI50 [42]: > 25 µM | TGI [42]: > 25 µM | GI50 [43]: > 25 µM | TGI [43]: > 25 µM | GI50 [44]: > 25 µM | TGI [44]: > 25 µM | GI50 [45]: > 25 µM | TGI [45]: > 25 µM | GI50 [46]: > 20 µM | TGI [46]: > 25 µM | GI50 [47]: > 18.4 µM | TGI [47]: > 25 µM | GI50 [48]: > 25 µM | TGI [48]: > 25 µM | GI50 [49]: > 25 µM | TGI [49]: > 25 µM | GI50 [50]: > 25 µM | TGI [50]: > 25 µM | GI50 [51]: > 25 µM | TGI [51]: > 25 µM | GI50 [52]: > 25 µM | TGI [52]: > 25 µM | GI50 [53]: > 25 µM | TGI [53]: > 25 µM | GI50 [54]: > 25 µM | TGI [54]: > 25 µM | GI50 [55]: > 25 µM | TGI [55]: > 25 µM | GI50 [56]: > 25 µM | TGI [56]: > 25 µM

COc1ccc(-n2c(SCc3cc(OC)c(OC)c(OC)c3)nc3ccc(C)cc3c2=O)cc1
GI50 [57]: 1.75 µM | TGI [57]: > 100 µM | GI50 [1]: 4.26 µM | TGI [1]: > 100 µM | GI50 [2]: 7.87 µM | TGI [2]: > 100 µM | GI50 [3]: 25.9 µM | TGI [3]: > 100 µM | GI50 [4]: 29.1 µM | TGI [4]: > 100 µM | GI50 [5]: 5.73 µM | TGI [5]: > 100 µM | GI50 [6]: > 100 µM | TGI [6]: > 100 µM | GI50 [7]: > 100 µM | TGI [7]: > 100 µM | GI50 [8]: 1.95 µM | TGI [8]: 16.9 µM | GI50 [9]: 3.71 µM | TGI [9]: > 100 µM | GI50 [10]: 59.8 µM | TGI [10]: > 100 µM | GI50 [12]: 14.8 µM | TGI [12]: > 100 µM | GI50 [13]: 5.24 µM | TGI [13]: > 100 µM | GI50 [14]: 6.82 µM | TGI [14]: > 100 µM | GI50 [15]: > 100 µM | TGI [15]: > 100 µM | GI50 [16]: 3.89 µM | TGI [16]: > 100 µM | GI50 [17]: > 100 µM | TGI [17]: > 100 µM | GI50 [18]: 4.3 µM | TGI [18]: > 100 µM | GI50 [19]: 7.37 µM | TGI [19]: > 100 µM | GI50 [20]: 4.41 µM | TGI [20]: > 100 µM | GI50 [21]: 4.75 µM | TGI [21]: > 100 µM | GI50 [22]: 4.53 µM | TGI [22]: > 100 µM | GI50 [23]: 4.87 µM | TGI [23]: > 100 µM | GI50 [24]: 2.83 µM | TGI [24]: > 100 µM | GI50 [25]: 5.19 µM | TGI [25]: > 100 µM | GI50 [26]: 55.2 µM | TGI [26]: > 100 µM | GI50 [27]: 9.74 µM | TGI [27]: > 100 µM | GI50 [28]: 3.83 µM | TGI [28]: > 100 µM | GI50 [29]: 6.06 µM | TGI [29]: > 100 µM | GI50 [30]: 9.9 µM | TGI [30]: > 100 µM | GI50 [31]: 3.38 µM | TGI [31]: > 100 µM | GI50 [32]: 5.24 µM | TGI [32]: > 100 µM | GI50 [33]: 2.55 µM | TGI [33]: 50.9 µM | GI50 [34]: 2.76 µM | TGI [34]: > 100 µM | GI50 [35]: 3.71 µM | TGI [35]: > 100 µM | GI50 [36]: > 100 µM | TGI [36]: > 100 µM | GI50 [37]: 4.35 µM | TGI [37]: > 100 µM | GI50 [38]: 17.2 µM | TGI [38]: > 100 µM | GI50 [39]: 52.7 µM | TGI [39]: > 100 µM | GI50 [40]: 42.9 µM | TGI [40]: > 100 µM | GI50 [41]: 64.4 µM | TGI [41]: > 100 µM | GI50 [42]: 1.88 µM | TGI [42]: 4.72 µM | GI50 [44]: 1.58 µM | TGI [44]: > 100 µM | GI50 [45]: > 100 µM | TGI [45]: > 100 µM | GI50 [46]: 70.4 µM | TGI [46]: > 100 µM | GI50 [47]: 8.73 µM | TGI [47]: > 100 µM | GI50 [48]: 5.56 µM | TGI [48]: > 100 µM | GI50 [49]: 3.74 µM | TGI [49]: > 100 µM | GI50 [50]: > 100 µM | TGI [50]: > 100 µM | GI50 [51]: 5.46 µM | TGI [51]: > 100 µM | GI50 [52]: 4.36 µM | TGI [52]: > 100 µM | GI50 [53]: 3.58 µM | TGI [53]: > 100 µM | GI50 [54]: > 100 µM | TGI [54]: > 100 µM | GI50 [55]: 4.57 µM | TGI [55]: > 100 µM | GI50 [56]: 32.7 µM | TGI [56]: > 100 µM
